Data from US6372791B1, “Method of promoting skin cell metabolism” (Johnson & Johnson Consumer Companies, Inc., priority 2000, dated 2002).

System: primary normal human dermal fibroblasts (NHDF)
Assay: Energy production (metabolic activity) by alamarBlue REDOX indicator fluorescence
Type: cell-based
Conditions: NHDF in DMEM prepared with Evian mineral water; 10 mM of each agent; 3-hour incubation, then alamarBlue 1 hour; fluorescence ex 530 nm/em 590 nm; n=8
Description: The effects of L-carnitine and sodium pyruvate, in mineral water, on energy production were evaluated in primary normal human dermal fibroblasts (adult). Energy production in the cell is assessed using the REDOX sensitive indicator alamarBlue™ (Alamar Biosciences, Sacramento, Calif.). The native, oxidized form of alamarBlue™ is taken up readily by cells and reduced intracellularly by the mitochondrial electron transport chain, resulting in a shift in its absorbance and fluorescence. Normal human dermal fibroblasts (NHDF), obtained from Clonetics (Biowhittaker Inc., Walkersville, Md.), were cultured in Clonetics FGM2 medium and grown to confluence in 96-well plates (Costar, Cambridge, Mass.). Culture medium was then replaced with DMEM (Life Technologies, Rockville, Md.) prepared with Evian® mineral water. After 72 hours cells were treated with 10 mM L-carnitine (Biosint USA, Larchmont, N.Y.), 10 mM sodium pyruvate (American International Chemical Inc., Natick, Mass.) or 10 mM L-carnitine in combination with 10 mM sodium pyruvate. At the end of a 3-hour incubation period, alamarBlue™ was added to each well and the plates returned to the incubator. After 1 hour the fluorescence was measured using a CytoFluor® Fluorescence Plate Reader (PerSeptive Biosystems, Framingham, Mass.) set with the following filter-combination: excitation at 530 nm and emission at 590 nm.

| SMILES | increase in metabolic activity |
| --- | --- |
| C[N+](C)(C)C[C@H](O)CC(=O)[O-] [carntine, L-carnitine] | 6.05% |
| CC(=O)C(=O)[O-].[Na+] [sodium pyruvate] | 2.16% |
